pIC50: −log10 of the molar value. The source made the active and inactive calls. The rule behind the calls is not given here.
Legend:
LYPLA2 = assay: IC50 of LYPLA1/LYPLA2 inhibition – biochemical, gel-based ABPP, dose response (AID 493110); details: competitive probe labeling
LYPLA1 = assay: as above; details: competitive probe labeling

| Structure (SMILES) | pIC50 (LYPLA2) | pIC50 (LYPLA1) | IC50 (LYPLA2) | IC50 (LYPLA1) |
| --- | --- | --- | --- | --- |
| CC(C)(C)C1CCN(C(=O)n2ncc(C3(O)CCCCC3)n2)CC1 | 7.24 | 7.46 | – | – |
| O=C(N1CCOCC1)n1nnc2ccccc21 | – | 6.10 | inactive | – |
| CC(C)(O)c1cnn(C(=O)N2CCC(C(C)(C)C)CC2)n1 | 7.01 | 7.36 | – | – |
| CCC1CCCCN1C(=O)n1ncc(C(O)(c2ccccc2)c2ccccc2)n1 (stereo not given) | – | – | > 10000 nM (inactive) | > 10000 nM (inactive) |
| CC(C)(C)C1CCN(C(=O)n2ncc(C(O)(c3ccccc3)c3ccccc3)n2)CC1 | 7.52 | 7.77 | – | – |

Source: PubChem BioAssay AID493110 (The Scripps Research Institute Molecular Screening Center, 2011)
